Measurements published in ChEMBL document CHEMBL1153255, “Studies on irreversible inhibition of serine proteases by -sulfonyloxyketone derivatives” (Bioorg Med Chem Lett, 1996).

Columns and labels:
[1] = target: T1, Chymotrypsin-like elastase family member 2A (Sus scrofa) (UniProt P08419); assay: Compound was evaluated for inhibitory activity against porcine pancreatic elastase
T1 sequence (whole entry): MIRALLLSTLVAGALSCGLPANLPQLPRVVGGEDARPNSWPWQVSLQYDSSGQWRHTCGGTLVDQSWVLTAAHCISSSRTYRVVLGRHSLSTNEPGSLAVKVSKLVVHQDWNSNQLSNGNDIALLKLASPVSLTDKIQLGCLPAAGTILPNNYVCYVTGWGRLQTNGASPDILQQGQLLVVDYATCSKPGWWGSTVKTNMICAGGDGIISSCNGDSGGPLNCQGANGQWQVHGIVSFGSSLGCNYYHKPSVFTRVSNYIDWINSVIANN

[2] = target: Chymotrypsinogen A (Bos taurus) (UniProt P00766); assay: Compound was evaluated for inhibitory activity against alpha- chymotrypsin
[3] = target: Chymotrypsinogen A (Bos taurus) (UniProt P00766); assay: Compound was evaluated for its inhibitory activity against alpha- chymotrypsin
[4] = target: T1, Chymotrypsin-like elastase family member 2A (Sus scrofa); assay: Compound was evaluated for inhibitory activity against porcine pancreatic elastase; No inactivation

Row | I [1] | K obs / 1 [1] | I [2] | K obs / 1 [2] | K obs / 1 [3] | K obs / 1 [4] | SMILES
1 | 2.01 mM | 0.19 M⁻¹ s⁻¹ | 3.28 mM | 0.01 M⁻¹ s⁻¹ | – | – | CC(=O)C(C)OS(=O)(=O)c1ccccc1 (configuration not stated)
2 | – | – | 0.057 mM | – | 7.7 M⁻¹ s⁻¹ | – | Cc1ccc(S(=O)(=O)N[C@@H](Cc2ccccc2)C(=O)CCl)cc1
3 | 0.103 mM | – | 0.096 mM | 10.5 M⁻¹ s⁻¹ | – | No inhibition | CC(=O)C(Cc1ccccc1)OS(=O)(=O)c1ccc(C)cc1 (configuration not stated)
4 | – | – | 2.31 mM | 0.33 M⁻¹ s⁻¹ | – | – | CC(=O)C(Cc1ccccc1)OS(C)(=O)=O (configuration not stated)
